Test results as given in PubChem BioAssay (NCI).
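Method: 48-hour compound exposure of cells in 96-well plates, five concentrations, linear interpolation of endpoints. GI50 is the concentration that inhibits growth by half. TGI: total growth inhibition.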

Key:
Assay in all cases: DTP human tumour cell line panel, 48 h
[1] = test system: NCI-H226 lung
[2] = test system: HOP-62 NSCLC
[3] = test system: SF-539 CNS
[4] = test system: TK-10 renal
[5] = test system: SK-OV-3 ovarian
[6] = test system: SN12C renal
[7] = test system: ACHN renal
[8] = test system: A498 renal
[9] = test system: MDA-MB-468 breast
[10] = test system: CCRF-CEM leukemia
[11] = test system: SNB-75 CNS
[12] = test system: DU-145 prostate
[13] = test system: OVCAR-5 ovarian
[14] = test system: SK-MEL-2 melanoma
[15] = test system: MCF7 breast
[16] = test system: SK-MEL-5 melanoma
[17] = test system: NCI-H460 lung
[18] = test system: A549 NSCLC
[19] = test system: HCC-2998 colon
[20] = test system: SNB-19 CNS
[21] = test system: HT29 colon
[22] = test system: K-562 leukemia
[23] = test system: RXF 393 renal
[24] = test system: U251 CNS
[25] = test system: UO-31 renal
[26] = test system: SF-268 CNS
[27] = test system: BT-549 breast
[28] = test system: MALME-3M melanoma
[29] = test system: RPMI-8226 leukemia
[30] = test system: LOX IMVI melanoma
[31] = test system: SK-MEL-28 melanoma
[32] = test system: SR leukemia
[33] = test system: OVCAR-3 ovarian
[34] = test system: NCI-H522 lung
[35] = test system: PC-3 prostate
[36] = test system: T-47D breast
[37] = test system: SW-620 colon
[38] = test system: UACC-62 melanoma
[39] = test system: EKVX NSCLC
[40] = test system: OVCAR-4 ovarian
[41] = test system: IGROV1 ovarian
[42] = test system: M14 melanoma
[43] = test system: MDA-MB-435
[44] = test system: HS 578T breast
[45] = test system: MOLT-4 leukemia
[46] = test system: NCI/ADR-RES ovarian
[47] = test system: COLO 205 colon
[48] = test system: HL-60(TB) leukemia
[49] = test system: UACC-257 melanoma
[50] = test system: HCT-15 colon
[51] = test system: 786-0 renal
[52] = test system: HOP-92 NSCLC
[53] = test system: CAKI-1 renal
[54] = test system: NCI-H23 lung
[55] = test system: HCT-116 colon
[56] = test system: KM12 colon
[57] = test system: SF-295 CNS
[58] = test system: OVCAR-8 ovarian
[59] = test system: MDA-MB-231 breast

SMILES: Cc1ccc(-c2nc(C#N)c(S(=O)(=O)N3CCN(S(=O)(=O)c4ccccc4)CC3)o2)cc1
- GI50 [1]: > 100 µM
- TGI [1]: > 100 µM
- GI50 [2]: > 100 µM
- TGI [2]: > 100 µM
- GI50 [3]: > 100 µM
- TGI [3]: > 100 µM
- GI50 [4]: > 100 µM
- TGI [4]: > 100 µM
- GI50 [5]: > 100 µM
- TGI [5]: > 100 µM
- GI50 [6]: > 100 µM
- TGI [6]: > 100 µM
- GI50 [7]: > 100 µM
- TGI [7]: > 100 µM
- GI50 [8]: > 100 µM
- TGI [8]: > 100 µM
- GI50 [9]: > 100 µM
- TGI [9]: > 100 µM
- GI50 [10]: > 100 µM
- TGI [10]: > 100 µM
- GI50 [11]: > 100 µM
- TGI [11]: > 100 µM
- GI50 [12]: > 100 µM
- TGI [12]: > 100 µM
- GI50 [13]: > 100 µM
- TGI [13]: > 100 µM
- GI50 [14]: > 100 µM
- TGI [14]: > 100 µM
- GI50 [15]: > 100 µM
- TGI [15]: > 100 µM
- GI50 [16]: > 100 µM
- TGI [16]: > 100 µM
- GI50 [17]: > 100 µM
- TGI [17]: > 100 µM
- GI50 [18]: > 100 µM
- TGI [18]: > 100 µM
- GI50 [19]: > 100 µM
- TGI [19]: > 100 µM
- GI50 [20]: > 100 µM
- TGI [20]: > 100 µM
- GI50 [21]: > 100 µM
- TGI [21]: > 100 µM
- GI50 [22]: > 100 µM
- TGI [22]: > 100 µM
- GI50 [23]: > 100 µM
- TGI [23]: > 100 µM
- GI50 [24]: > 100 µM
- TGI [24]: > 100 µM
- GI50 [25]: > 100 µM
- TGI [25]: > 100 µM
- GI50 [26]: > 100 µM
- TGI [26]: > 100 µM
- GI50 [27]: > 100 µM
- TGI [27]: > 100 µM
- GI50 [28]: > 100 µM
- TGI [28]: > 100 µM
- GI50 [29]: > 100 µM
- TGI [29]: > 100 µM
- GI50 [30]: > 100 µM
- TGI [30]: > 100 µM
- GI50 [31]: > 100 µM
- TGI [31]: > 100 µM
- GI50 [32]: > 100 µM
- TGI [32]: > 100 µM
- GI50 [33]: > 100 µM
- TGI [33]: > 100 µM
- GI50 [34]: > 100 µM
- TGI [34]: > 100 µM
- GI50 [35]: > 100 µM
- TGI [35]: > 100 µM
- GI50 [36]: > 100 µM
- TGI [36]: > 100 µM
- GI50 [37]: > 100 µM
- TGI [37]: > 100 µM
- GI50 [38]: > 100 µM
- TGI [38]: > 100 µM
- GI50 [39]: > 100 µM
- TGI [39]: > 100 µM
- GI50 [40]: > 100 µM
- TGI [40]: > 100 µM
- GI50 [41]: > 100 µM
- TGI [41]: > 100 µM
- GI50 [42]: > 100 µM
- TGI [42]: > 100 µM
- GI50 [43]: > 100 µM
- TGI [43]: > 100 µM
- GI50 [44]: > 100 µM
- TGI [44]: > 100 µM
- GI50 [45]: > 100 µM
- TGI [45]: > 100 µM
- GI50 [46]: > 100 µM
- TGI [46]: > 100 µM
- GI50 [47]: > 100 µM
- TGI [47]: > 100 µM
- GI50 [48]: > 100 µM
- TGI [48]: > 100 µM
- GI50 [49]: > 100 µM
- TGI [49]: > 100 µM
- GI50 [50]: > 100 µM
- TGI [50]: > 100 µM
- GI50 [51]: > 100 µM
- TGI [51]: > 100 µM
- GI50 [52]: > 100 µM
- TGI [52]: > 100 µM
- GI50 [53]: > 100 µM
- TGI [53]: > 100 µM
- GI50 [54]: > 100 µM
- TGI [54]: > 100 µM
- GI50 [55]: > 100 µM
- TGI [55]: > 100 µM
- GI50 [56]: > 100 µM
- TGI [56]: > 100 µM
- GI50 [57]: > 100 µM
- TGI [57]: > 100 µM
- GI50 [58]: > 100 µM
- TGI [58]: > 100 µM
- GI50 [59]: > 100 µM
- TGI [59]: > 100 µM
